28 compounds from patent publication US10906915B2, “Substituted pyrazoloazepin-4-ones and their use as phosphodiesterase inhibitors” (LEO Pharma A/S, priority 2016, dated 2021) can be followed below.

Usually IC50 stands for the concentration that gives 50% inhibition.

Sequence of human PDE4D catalytic domain (Q08499 380-740 limits assumed): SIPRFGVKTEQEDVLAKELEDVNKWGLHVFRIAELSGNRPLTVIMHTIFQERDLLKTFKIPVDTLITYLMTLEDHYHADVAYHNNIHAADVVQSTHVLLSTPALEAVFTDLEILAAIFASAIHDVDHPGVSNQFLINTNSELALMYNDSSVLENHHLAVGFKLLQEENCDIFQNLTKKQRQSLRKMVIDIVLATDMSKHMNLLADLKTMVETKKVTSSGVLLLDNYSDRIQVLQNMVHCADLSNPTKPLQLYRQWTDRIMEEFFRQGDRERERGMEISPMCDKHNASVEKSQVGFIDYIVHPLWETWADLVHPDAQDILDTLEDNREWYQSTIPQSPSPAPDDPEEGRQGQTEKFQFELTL

The assay addresses human PDE4D catalytic domain (UniProt no. Q08499) (Homo sapiens (Human), UniProt Q08499). The experiment in a line: PDE4 assay (TR-FRET, FAM-cAMP cleavage). The conditions noted are these: human PDE4D catalytic domain; molar concentration giving 50% inhibition of substrate cleavage; read-out: PDE4 IC50 range. It counts as biochemical. Put shortly: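 Read-out is time-resolved FRET from Tb donor to FAM-AMP captured on trivalent-metal nanoparticles added to stop the reaction. Substrate was a mix of plain and FAM-labelled cAMP, cleaved by human PDE4D catalytic domain ([…]) with titrated compound; IC50 ranges (nM) versus controls.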
(In TR-FRET formats the signal depends on donor and acceptor labels being close together.)
With `CCc1nn(CCCOC(=O)c2ccc(C(=O)N3CCN(C)CC3)cc2)c2c1C(=O)NCC1(CCOCC1)C2` [Example 148, 3-(3-ethyl-4-oxo-spiro[6,8-dihydro-5H-pyrazolo[4,3-c]azepine-7,4′-tetrahydropyran]-1-yl)propyl 4-(4-methylpiperazine-1-carbonyl)benzoate], the concentration for half-maximal inhibition (IC50) was 100 to 500 nM.

Regarding `CCc1nn(CCCOC(=O)c2ccc(C(=O)N3CCN(C(C)=O)CC3)cc2)c2c1C(=O)NCC1(CCOCC1)C2` [Example 149, 3-(3-ethyl-4-oxo-spiro[6,8-dihydro-5H-pyrazolo[4,3-c]azepine-7,4′-tetrahydropyran]-1-yl)propyl 4-(4-acetylpiperazine-1-carbonyl)benzoate], the IC50 was 100 to 500 nM.

Take `CCc1nn(CCCOC(=O)c2cccc(C(N)=O)c2)c2c1C(=O)NCC1(CCOCC1)C2` [Example 150, 3-(3-ethyl-4-oxo-spiro[6,8-dihydro-5H-pyrazolo[4,3-c]azepine-7,4′-tetrahydropyran]-1-yl)propyl 3-carbamoylbenzoate]: the IC50 is < 100 nM.

Regarding `CCc1nn(CCCOC(=O)c2cccc(C(=O)NC)c2)c2c1C(=O)NCC1(CCOCC1)C2` [Example 151, 3-(3-ethyl-4-oxo-spiro[6,8-dihydro-5H-pyrazolo[4,3-c]azepine-7,4′-tetra-hydropyran]-1-yl)propyl 3-(methylcarbamoyl)benzoate], the IC50 is < 100 nM.

For the compound `CCNC(=O)c1cccc(C(=O)OCCCn2nc(CC)c3c2CC2(CCOCC2)CNC3=O)c1` [Example 152, 3-(3-ethyl-4-oxo-spiro[6,8-dihydro-5H-pyrazolo[4,3-c]azepine-7,4′-tetrahydropyran]-1-yl)propyl 3-(ethylcarbamoyl)benzoate], the concentration for half-maximal inhibition (IC50) is < 100 nM.

In the case of `CCc1nn(CCCOC(=O)c2cccc(C(=O)N(C)C)c2)c2c1C(=O)NCC1(CCOCC1)C2` [Example 153, 3-(3-ethyl-4-oxo-spiro[6,8-dihydro-5H-pyrazolo[4,3-c]azepine-7,4′-tetrahydropyran]-1-yl)propyl 3-(dimethylcarbamoyl)-benzoate], the IC50 is < 100 nM.

In the case of `CCc1nn(CCCOC(=O)c2cccc(C(=O)NC(C)C)c2)c2c1C(=O)NCC1(CCOCC1)C2` [Example 154, 3-(3-ethyl-4-oxo-spiro[6,8-dihydro-5H-pyrazolo[4,3-c]azepine-7,4′-tetrahydropyran]-1-yl)propyl 3-(isopropylcarbamoyl)-benzoate], the half-inhibitory concentration (IC50) was < 100 nM.

Turning to `CCc1nn(CCCOC(=O)c2cccc(C(=O)N3CCCC3)c2)c2c1C(=O)NCC1(CCOCC1)C2` [Example 155, 3-(3-ethyl-4-oxo-spiro[6,8-dihydro-5H-pyrazolo[4,3-c]azepine-7,4′-tetrahydropyran]-1-yl)propyl 3-(pyrrolidine-1-carbonyl)benzoate], the concentration for half-maximal inhibition (IC50) is < 100 nM.

Consider `CCc1nn(CCCOC(=O)c2cccc(C(=O)N3CCCCC3)c2)c2c1C(=O)NCC1(CCOCC1)C2` [Example 156, 3-(3-ethyl-4-oxo-spiro[6,8-dihydro-5H-pyrazolo[4,3-c]azepine-7,4′-tetrahydropyran]-1-yl)propyl 3-(piperidine-1-carbonyl)benzoate], for which the IC50 was < 100 nM.

`CCc1nn(CCCOC(=O)c2cccc(C(=O)N3CCOCC3)c2)c2c1C(=O)NCC1(CCOCC1)C2` [Example 157, 3-(3-ethyl-4-oxo-spiro[6,8-dihydro-5H-pyrazolo[4,3-c]azepine-7,4′-tetrahydropyran]-1-yl)propyl 3-(morpholine-4-carbonyl)benzoate]: the half-maximal inhibitory concentration (IC50) is < 100 nM.

As for `CCc1nn(CCCOC(=O)c2cccc(C(=O)N3CCN(C)CC3)c2)c2c1C(=O)NCC1(CCOCC1)C2` [Example 158, 3-(3-ethyl-4-oxo-spiro[6,8-dihydro-5H-pyrazolo[4,3-c]azepine-7,4′-tetrahydropyran]-1-yl)propyl 3-(4-methylpiperazine-1-carbonyl)benzoate], the IC50 lay within 100 to 500 nM.

In the case of `CCc1nn(CCCOC(=O)c2cccc(C(=O)N3CCN(C(C)=O)CC3)c2)c2c1C(=O)NCC1(CCOCC1)C2` [Example 159, 3-(3-ethyl-4-oxo-spiro[6,8-dihydro-5H-pyrazolo[4,3-c]azepine-7,4′-tetrahydropyran]-1-yl)propyl 3-(4-acetylpiperazine-1-carbonyl)benzoate], the IC50 was < 100 nM.

As for `CCc1nn(C[C@@H](C)COC(=O)C(C)C)c2c1C(=O)NCC1(CCOCC1)C2` [Example 160, [(2R)-3-(3-ethyl-4-oxo-spiro[6,8-dihydro-5H-pyrazolo[4,3-c]azepine-7,4′-tetrahydropyran]-1-yl)-2-methyl-propyl] 2-methylpropanoate], the IC50 was < 100 nM.

As to `CCc1nn(C[C@@H](C)COC(=O)C2CCCC2)c2c1C(=O)NCC1(CCOCC1)C2` [Example 161, [(2R)-3-(3-ethyl-4-oxo-spiro[6,8-dihydro-5H-pyrazolo[4,3-c]azepine-7,4′-tetrahydropyran]-1-yl)-2-methyl-propyl] cyclopentanecarboxylate], the concentration for half-maximal inhibition (IC50) was < 100 nM.

For the compound `CCc1nn(C[C@@H](C)COC(=O)C(CC)CC)c2c1C(=O)NCC1(CCOCC1)C2` [Example 162, [(2R)-3-(3-ethyl-4-oxo-spiro[6,8-dihydro-5H-pyrazolo[4,3-c]azepine-7,4′-tetrahydropyran]-1-yl)-2-methyl-propyl] 2-ethylbutanoate], the IC50 was < 100 nM.

On to `CCc1nn(C[C@@H](C)COC(=O)c2ccccc2)c2c1C(=O)NCC1(CCOCC1)C2` [Example 163, [(2R)-3-(3-ethyl-4-oxo-spiro[6,8-dihydro-5H-pyrazolo[4,3-c]azepine-7,4′-tetrahydropyran]-1-yl)-2-methyl-propyl] benzoate], for which the 50% inhibitory concentration (IC50) was < 100 nM.

With `CCc1nn(C[C@@H](C)COC(=O)c2ccc(C)cc2)c2c1C(=O)NCC1(CCOCC1)C2` [Example 164, [(2R)-3-(3-ethyl-4-oxo-spiro[6,8-dihydro-5H-pyrazolo[4,3-c]azepine-7,4′-tetrahydropyran]-1-yl)-2-methyl-propyl] 4-methylbenzoate], the IC50 is < 100 nM.

On to `CCc1nn(C[C@@H](C)COC(=O)c2cccc(F)c2)c2c1C(=O)NCC1(CCOCC1)C2` [Example 165, [(2R)-3-(3-ethyl-4-oxo-spiro[6,8-dihydro-5H-pyrazolo[4,3-c]azepine-7,4′-tetrahydropyran]-1-yl)-2-methyl-propyl] 3-fluorobenzoate], for which the IC50 was < 100 nM.

Turning to `CCc1nn(C[C@@H](C)COC(=O)c2ccc(F)cc2)c2c1C(=O)NCC1(CCOCC1)C2` [Example 166, [(2R)-3-(3-ethyl-4-oxo-spiro[6,8-dihydro-5H-pyrazolo[4,3-c]azepine-7,4′-tetrahydropyran]-1-yl)-2-methyl-propyl] 4-fluorobenzoate], the IC50 is < 100 nM.

For `CCc1nn(C[C@@H](C)COC(=O)c2cccc(C#N)c2)c2c1C(=O)NCC1(CCOCC1)C2` [Example 167, [(2R)-3-(3-ethyl-4-oxo-spiro[6,8-dihydro-5H-pyrazolo[4,3-c]azepine-7,4′-tetrahydropyran]-1-yl)-2-methyl-propyl] 3-cyanobenzoate], the IC50 was < 100 nM.

With `CCc1nn(C[C@@H](C)COC(=O)c2ccc(C#N)cc2)c2c1C(=O)NCC1(CCOCC1)C2` [Example 168, [(2R)-3-(3-ethyl-4-oxo-spiro[6,8-dihydro-5H-pyrazolo[4,3-c]azepine-7,4′-tetrahydropyran]-1-yl)-2-methyl-propyl] 4-cyanobenzoate], the IC50 is < 100 nM.

As for `CCc1nn(C[C@@H](C)COC(=O)c2ccc(C)c(C)c2)c2c1C(=O)NCC1(CCOCC1)C2` [Example 169, [(2R)-3-(3-ethyl-4-oxo-spiro[6,8-dihydro-5H-pyrazolo[4,3-c]azepine-7,4′-tetrahydropyran]-1-yl)-2-methyl-propyl] 3,4-dimethylbenzoate], the IC50 was < 100 nM.

Take `CCc1nn(C[C@@H](C)COC(=O)c2ccc(C)cc2C)c2c1C(=O)NCC1(CCOCC1)C2` [Example 170, [(2R)-3-(3-ethyl-4-oxo-spiro[6,8-dihydro-5H-pyrazolo[4,3-c]azepine-7,4′-tetrahydropyran]-1-yl)-2-methyl-propyl] 2,4-dimethylbenzoate]: the IC50 was < 100 nM.

For the compound `CCc1nn(C[C@@H](C)COC(=O)c2cccc(OC)c2)c2c1C(=O)NCC1(CCOCC1)C2` [Example 171, [(2R)-3-(3-ethyl-4-oxo-spiro[6,8-dihydro-5H-pyrazolo[4,3-c]azepine-7,4′-tetrahydropyran]-1-yl)-2-methyl-propyl] 3-methoxybenzoate], the IC50 is < 100 nM.

Turning to `CCc1nn(C[C@@H](C)COC(=O)c2ccc(C)cc2F)c2c1C(=O)NCC1(CCOCC1)C2` [Example 172, [(2R)-3-(3-ethyl-4-oxo-spiro[6,8-dihydro-5H-pyrazolo[4,3-c]azepine-7,4′-tetrahydropyran]-1-yl)-2-methyl-propyl] 2-fluoro-4-methyl-benzoate], the IC50 was < 100 nM.

For `CCc1nn(C[C@@H](C)COC(=O)c2cc(F)ccc2C)c2c1C(=O)NCC1(CCOCC1)C2` [Example 173, [(2R)-3-(3-ethyl-4-oxo-spiro[6,8-dihydro-5H-pyrazolo[4,3-c]azepine-7,4′-tetrahydropyran]-1-yl)-2-methyl-propyl] 5-fluoro-2-methyl-benzoate], the IC50 is < 100 nM.

In the case of `CCc1nn(C[C@@H](C)COC(=O)c2c(C)cccc2F)c2c1C(=O)NCC1(CCOCC1)C2` [Example 174, [(2R)-3-(3-ethyl-4-oxo-spiro[6,8-dihydro-5H-pyrazolo[4,3-c]azepine-7,4′-tetrahydropyran]-1-yl)-2-methyl-propyl] 2-fluoro-6-methyl-benzoate], the half-inhibitory concentration (IC50) is < 100 nM.

As to `CCc1nn(C[C@@H](C)COC(=O)c2ccc(Cl)cc2)c2c1C(=O)NCC1(CCOCC1)C2` [Example 175, [(2R)-3-(3-ethyl-4-oxo-spiro[6,8-dihydro-5H-pyrazolo[4,3-c]azepine-7,4′-tetrahydropyran]-1-yl)-2-methyl-propyl] 4-chlorobenzoate], the 50% inhibitory concentration (IC50) is < 100 nM.
